Drawing on PubChem BioAssay AID743317 (Broad Institute, 2014), this text covers AC40 and activity increase (activation) for 55 compounds.

Structures are written as SMILES. Results filed as inconclusive are left out. Calls of active or inactive are those of the source.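 The calls were made as follows: active = fitted curve reaches 40% activation at or below the top valid dose, and every replicate test is called active; inconclusive = replicate tests disagree, some active and some inactive; inactive = all replicate tests inactive, including activity in the wrong direction.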 Bounds are passed on as bounds.

Chain of Endoplasmic reticulum aminopeptidase 1 (Homo sapiens) (Q9NZ08 whole entry, looked up): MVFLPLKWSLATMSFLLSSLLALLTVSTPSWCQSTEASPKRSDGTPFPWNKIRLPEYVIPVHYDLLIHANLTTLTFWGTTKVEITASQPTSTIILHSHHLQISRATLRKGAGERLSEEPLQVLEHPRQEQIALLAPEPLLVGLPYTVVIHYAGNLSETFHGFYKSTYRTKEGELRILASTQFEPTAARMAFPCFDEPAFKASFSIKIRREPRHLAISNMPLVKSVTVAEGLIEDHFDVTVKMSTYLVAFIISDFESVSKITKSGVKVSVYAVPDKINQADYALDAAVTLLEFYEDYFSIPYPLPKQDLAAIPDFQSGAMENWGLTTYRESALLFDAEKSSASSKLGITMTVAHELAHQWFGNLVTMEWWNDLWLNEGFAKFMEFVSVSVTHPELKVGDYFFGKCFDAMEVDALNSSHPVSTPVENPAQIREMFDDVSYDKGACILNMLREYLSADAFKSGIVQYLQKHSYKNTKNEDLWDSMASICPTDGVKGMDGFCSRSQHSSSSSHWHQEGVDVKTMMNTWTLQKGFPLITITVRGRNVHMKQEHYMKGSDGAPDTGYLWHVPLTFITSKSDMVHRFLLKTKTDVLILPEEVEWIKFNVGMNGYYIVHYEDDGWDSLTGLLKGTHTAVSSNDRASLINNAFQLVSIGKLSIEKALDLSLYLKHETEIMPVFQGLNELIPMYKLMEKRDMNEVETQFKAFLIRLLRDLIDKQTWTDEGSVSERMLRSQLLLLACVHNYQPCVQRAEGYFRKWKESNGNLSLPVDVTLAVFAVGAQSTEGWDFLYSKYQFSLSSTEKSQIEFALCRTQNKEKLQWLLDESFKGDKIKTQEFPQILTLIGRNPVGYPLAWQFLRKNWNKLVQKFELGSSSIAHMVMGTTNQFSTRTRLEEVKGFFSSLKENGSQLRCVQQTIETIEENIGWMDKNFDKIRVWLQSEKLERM

The first experiment concerns the target Endoplasmic reticulum aminopeptidase 1 (Homo sapiens) (UniProt Q9NZ08). In words: ERAP1 aminopeptidase activity change, dose response, biochemical, fluorescence, cherry-pick (AID 743317). The note with it: ERAP1 enzyme, Leu-AMC fluorescence, 60 min.
`C[C@H](CO)N1C[C@H](C)[C@H](CN(C)CC2CCCCC2)Oc2c(NC(=O)Nc3ccc4c(c3)OCO4)cccc2C1=O`: the AC40 is 2550 nM.
With `C[C@@H]1CCCCO[C@@H](CN(C)Cc2ccccc2)[C@H](C)CN([C@H](C)CO)C(=O)c2cc(NS(=O)(=O)c3cccs3)ccc2O1`, the AC40 was 528 nM.
Consider `COc1ccc(CN(C)C[C@H]2OCCCC[C@@H](C)Oc3ccc(NS(=O)(=O)c4cccs4)cc3C(=O)N([C@@H](C)CO)C[C@@H]2C)cc1`, for which the AC40 was 4590 nM.
As for `C[C@@H]1CCCCO[C@H](CN(C)C)[C@H](C)CN([C@H](C)CO)C(=O)c2cc(NS(=O)(=O)c3ccc(Cl)cc3)ccc2O1`, the AC40 is 548 nM.
On the same count and under the same terms, as for `C[C@@H]1CN([C@H](C)CO)C(=O)c2cccc(NC(=O)Nc3ccccc3)c2O[C@@H]1CN(C)Cc1ccc(C(=O)O)cc1`, the figure is 3610 nM; as for `COc1ccc(NC(=O)Nc2ccc3c(c2)C(=O)N([C@H](C)CO)C[C@@H](C)[C@H](CN(C)Cc2ccc(C(=O)O)cc2)OCCCC[C@@H](C)O3)cc1`, 3300 nM.
On the same count and under the same terms, as for `COc1ccc(NC(=O)Nc2ccc3c(c2)C(=O)N([C@@H](C)CO)C[C@@H](C)[C@@H](CN(C)Cc2ccc(C(=O)O)cc2)OCCCC[C@@H](C)O3)cc1`, the figure is under 80 nM; as for `CNC[C@H]1OCCCC[C@@H](C)Oc2ccc(NS(=O)(=O)c3ccc(C)cc3)cc2C(=O)N([C@@H](C)CO)C[C@H]1C`, 3420 nM; as for `COc1ccc(CNCc2c(O)c(Cl)cc3c(C)c(C)c(=O)oc23)c(OC)c1`, 2190 nM.
Still for that read-out and setting: then `Cc1noc(C)c1S(=O)(=O)Nc1ccc2c(c1)C(=O)N([C@H](C)CO)C[C@H](C)[C@H](CN(C)Cc1ccc3c(c1)OCO3)OCCCC[C@@H](C)O2`, with 2350 nM; and `C[C@@H]1CCCCO[C@@H](CN(C)C)[C@@H](C)CN([C@@H](C)CO)C(=O)c2cc(NS(=O)(=O)c3ccc(Cl)cc3)ccc2O1`, with 636 nM.
On to `Cc1ccccc1-c1ccc2c(c1)O[C@@H](CN(C)Cc1ccc(C(=O)O)cc1)[C@@H](C)CN([C@@H](C)CO)S2(=O)=O`, for which the AC40 is 1240 nM.
As to `COc1ccc(C2=NN(c3ccc(C(=O)O)cc3)C(c3ccc(OC)c(OC)c3)C2)cc1` (stereo not given), the AC40 is 442 nM.
On the same count and under the same terms, as for `O=S(=O)(O)c1ccc(N2N=C(c3ccccc3)CC2c2ccccc2)cc1` (stereo not given), the figure is 4310 nM; as for `COc1ccc(CN(C)C[C@H]2OCCCC[C@@H](C)Oc3ccc(NS(=O)(=O)c4cccs4)cc3C(=O)N([C@@H](C)CO)C[C@H]2C)cc1`, 1110 nM.
Take `C[C@@H]1CCCCO[C@H](CN(C)Cc2ccccc2)[C@H](C)CN([C@H](C)CO)C(=O)c2cc(NS(=O)(=O)c3ccccc3)ccc2O1`: the AC40 was 358 nM.
On the same count and under the same terms, then `C[C@@H]1CCCCO[C@H](CN(C)Cc2ccc(C(=O)O)cc2)[C@@H](C)CN([C@H](C)CO)C(=O)c2cc(NC(=O)Nc3ccc(C(F)(F)F)cc3)ccc2O1`, with under 160 nM.
On the same count and under the same terms, then `CCCNC(=O)C[C@@H]1CC[C@@H]2[C@H](COC[C@H](O)CN2C(=O)Nc2cccc(Cl)c2)O1`, with 6770 nM.
Same read-out and setting: then `COc1ccc(NC(=O)Nc2ccc3c(c2)C(=O)N([C@H](C)CO)C[C@@H](C)[C@@H](CN(C)Cc2ccc(C(=O)O)cc2)OCCCC[C@@H](C)O3)cc1`, with 652 nM.
Take `O=C(O)c1cccc(NC(=O)c2ccccc2NC(=O)c2cccc([N+](=O)[O-])c2)c1`: the AC40 was 967 nM.
Still for that read-out and setting: as for `COc1ccc(CN(C)C[C@@H]2OCCCC[C@H](C)Oc3ccc(NS(=O)(=O)c4cccs4)cc3C(=O)N([C@H](C)CO)C[C@@H]2C)cc1`, the figure is 7890 nM; as for `C[C@@H]1CCCCO[C@@H](CN(C)C)[C@@H](C)CN([C@@H](C)CO)C(=O)c2cc(NS(=O)(=O)c3ccc(F)cc3)ccc2O1`, 454 nM; as for `O=c1cc(CN2CCOCC2)c2cc(Cl)c(O)cc2o1`, 4840 nM.
Still for that read-out and setting: then `C[C@H](CO)N1C[C@H](C)[C@H](CN(C)Cc2ccc(C(=O)O)cc2)Oc2c(NC(=O)Nc3ccccc3)cccc2C1=O`, with 2460 nM.
`O=c1cc(CN2CCN(Cc3ccccc3)CC2)c2ccc(O)cc2o1`: the AC40 was 1680 nM.
Take `COc1cccc(CN(C)Cc2cc(=O)oc3cc(O)c(Cl)cc23)c1`: the AC40 is 2900 nM.
Still for that read-out and setting: as for `Cc1ccc(S(=O)(=O)c2cc3ccc(O)cc3oc2=O)cc1C`, the figure is 2990 nM.
For the compound `COc1ccc(CN(C)C[C@@H]2OCCCC[C@@H](C)Oc3ccc(NS(=O)(=O)c4c(C)noc4C)cc3C(=O)N([C@@H](C)CO)C[C@@H]2C)cc1`, the AC40 is 1880 nM.
Same read-out and setting: as for `COc1ccc(CN(C)C[C@@H]2OCCCC[C@@H](C)Oc3ccc(NS(=O)(=O)c4cccs4)cc3C(=O)N([C@@H](C)CO)C[C@H]2C)cc1`, the figure is 577 nM.
The same measure, in the same setting: as for `Cc1noc(C)c1NC(=O)Nc1ccc2c(c1)C(=O)N([C@H](C)CO)C[C@@H](C)[C@@H](CN(C)Cc1ccc(C(F)(F)F)cc1)OCCCC[C@@H](C)O2`, the figure is 2770 nM; as for `CCCN(C)C[C@@H]1OCCCC[C@@H](C)Oc2ccc(NS(=O)(=O)c3cccs3)cc2C(=O)N([C@H](C)CO)C[C@@H]1C`, 107 nM.
Same read-out and setting: as for `C[C@@H]1CCCCO[C@@H](CN(C)Cc2ccccc2)[C@@H](C)CN([C@H](C)CO)C(=O)c2cc(NS(=O)(=O)c3cccs3)ccc2O1`, the figure is 158 nM.

Still in this experiment, the particulars now being: ERAP1 enzyme, Leu-AMC fluorescence, 60 min; at 5.6 µM (top of the series).
Consider `O=c1ccc2cc(O[C@@H]3O[C@@H](CO)[C@H](O)[C@@H](O)[C@@H]3O)c(O)cc2o1`, for which the activity increase (activation) was -79.1% (inactive).
Same read-out and setting: as for `CCCc1cc(=O)oc2c(CN3CCN(C)CC3)c(O)ccc12`, the figure is -44.3% (inactive); as for `Cc1cc2nc(-c3ccc[nH]c3=O)[nH]c2cc1C`, -30.6% (inactive).
On the same count and under the same terms, as for `CC1CCN(Cc2cc(=O)oc3cc(O)c(Cl)cc23)CC1`, the figure is -36.5% (inactive).

The experiment is the same for the next values; noted with them: ERAP1 enzyme, Leu-AMC fluorescence, 60 min; at 10 µM (top of the series).
Take `CCN1[C@H](C(=O)Nc2nccs2)[C@@H](CO)[C@@H]2Cn3c(ccc(/C=C/c4ccccc4)c3=O)[C@@H]21`: the activity increase (activation) is -13.4% (inactive).

The same experiment, now with this note: ERAP1 enzyme, Leu-AMC fluorescence, 60 min; at 11 µM (top of the series).
For `CCc1c(C)c2cc(Cl)c(O)c(CN(C)C)c2oc1=O`, the activity increase (activation) is -92.5% (inactive).
In the case of `CCN(CC)Cc1c(O)c(Cl)cc2c(C)cc(=O)oc12`, the activity increase (activation) was -83.4% (inactive).
Consider `O=S(=O)(c1ccc(N2CCC(c3ccc(Cl)cc3)=N2)cc1)N(CCO)CCO`, for which the activity increase (activation) is -40.9% (inactive).
Take `Cc1cc(=O)oc2c(CN3CCN(CCO)CC3)c(O)ccc12`: the activity increase (activation) was -61.9% (inactive).
Still for that read-out and setting: then `CCc1cc(=O)oc2c(CNCc3c(F)cccc3Cl)c(O)ccc12`, with -60.7% (inactive).
Same read-out and setting: then `O=c1ccc2cc(O)c(O)cc2o1`, with -53.9% (inactive); and `CC(C)[C@@H](C(=O)N[C@@H](CCc1ccc(O)cc1)C(=O)O)N(C)C(=O)[C@H](CO)NC(=O)[C@@H](O)[C@H](N)CCCCCCCCl`, with -103% (inactive).
With `Cc1cc(=O)oc2c(CN3CCN(C)CC3)c(O)c(Cl)cc12`, the activity increase (activation) is -69.3% (inactive).
The same measure, in the same setting: then `CN1c2ccc(-c3ccc(C#N)cc3)cc2[C@@H]2[C@@H](CCN2C(=O)CC2CC2)[C@@H]1CO`, with -8.63% (inactive); and `Cc1cc(=O)oc2cc(NS(=O)(=O)c3ccc(F)cc3)ccc12`, with -52% (inactive).
With `Cc1cc(=O)oc2c(CN3CCCC3)c(O)ccc12`, the activity increase (activation) was -44% (inactive).
With `Cc1c(Cc2ccccc2)c(=O)oc2cc(O)ccc12`, the activity increase (activation) was -39.3% (inactive).
Same read-out and setting: as for `CN1CCCC1CCNc1ccc2c(=O)c3ccccc3oc2c1` (stereo not given), the figure is -115% (inactive).
Same read-out and setting: then `COCCCn1c(C(=O)N2CCOCC2)cc2c(=O)n3ccccc3nc21`, with -46.9% (inactive).
For `CCCCc1cc(=O)oc2cc(O)ccc12`, the activity increase (activation) is -62.4% (inactive).
Still for that read-out and setting: then `CCCNC(=O)N(C)C[C@@H]1Oc2ncc(-c3ccncc3)cc2C(=O)N([C@H](C)CO)C[C@@H]1C`, with -31.8% (inactive); and `CCc1c(C)c2cc(Cl)c(O)c(CN(CC)CC)c2oc1=O`, with -62.3% (inactive); and `CCCCCCC[C@H](N)[C@H](O)C(=O)N(C)[C@@H](CCS(C)=O)C(=O)N[C@@H](Cc1ccc(O)cc1)C(=O)N[C@@H](Cc1ccc(O)cc1)C(=O)O` (stereo not given in full), with -57.4% (inactive).
